Each compound was assayed against T1, VPS18_C522 (Homo sapiens, UniProt Q9P253) (assay: IA-DTB cysteine engagement). Conditions: 22Rv1 cells, 20 μM probe, 1 h, relative to DMSO.
T1 construct: endogenous in cells; host or cells: 22Rv1
T1 sequence (Q9P253 1-973): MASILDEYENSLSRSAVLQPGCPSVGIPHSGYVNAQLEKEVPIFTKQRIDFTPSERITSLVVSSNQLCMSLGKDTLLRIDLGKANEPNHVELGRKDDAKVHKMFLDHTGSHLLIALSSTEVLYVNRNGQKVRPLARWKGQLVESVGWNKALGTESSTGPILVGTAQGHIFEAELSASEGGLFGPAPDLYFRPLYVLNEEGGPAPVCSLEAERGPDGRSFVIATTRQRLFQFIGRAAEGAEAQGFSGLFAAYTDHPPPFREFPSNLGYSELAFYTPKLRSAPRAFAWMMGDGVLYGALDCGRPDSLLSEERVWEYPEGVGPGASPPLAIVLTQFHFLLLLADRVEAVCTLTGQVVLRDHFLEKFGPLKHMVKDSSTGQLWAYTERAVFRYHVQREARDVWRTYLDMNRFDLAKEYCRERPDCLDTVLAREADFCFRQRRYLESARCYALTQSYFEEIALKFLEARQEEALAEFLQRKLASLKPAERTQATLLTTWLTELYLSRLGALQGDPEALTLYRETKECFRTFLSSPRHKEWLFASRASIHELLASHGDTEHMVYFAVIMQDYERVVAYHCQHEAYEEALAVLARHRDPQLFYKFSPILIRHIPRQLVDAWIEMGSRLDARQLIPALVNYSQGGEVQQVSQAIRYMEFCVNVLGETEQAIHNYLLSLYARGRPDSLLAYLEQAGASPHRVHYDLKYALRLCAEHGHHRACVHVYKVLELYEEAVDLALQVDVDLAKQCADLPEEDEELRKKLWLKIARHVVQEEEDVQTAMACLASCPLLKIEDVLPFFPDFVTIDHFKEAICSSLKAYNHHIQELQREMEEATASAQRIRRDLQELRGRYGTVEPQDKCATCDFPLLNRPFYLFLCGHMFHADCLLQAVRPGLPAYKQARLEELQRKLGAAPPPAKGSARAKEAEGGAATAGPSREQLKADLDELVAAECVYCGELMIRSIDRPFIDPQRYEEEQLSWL
Type: binding
Outline: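 Competitive chemoproteomics: residual cysteine reactivity toward IA-DTB in lysates from probe-treated cells was quantified by TMT reporter ions relative to DMSO-treated controls. Replicates sharing cell line, probe, concentration and duration were averaged.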

Row | Compound | % engagement VPS18_C522
1 | C=CC(=O)N1C[C@H](c2ccc(Br)cc2)[C@H]1C(=O)Nc1cccc2cccnc12 [MY-3A, (2S,3S)-1-acryloyl-3-(4-bromophenyl)-N-(quinolin-8-yl)azetidine-2-carboxamide] | 88%
2 | C=CC(=O)N1C[C@H](c2ccc(Br)cc2)[C@@H]1C(=O)Nc1cccc2cccnc12 [MY-1B, (2R,3S)-1-acryloyl-3-(4-bromophenyl)-N-(quinolin-8-yl)azetidine-2-carboxamide] | 45%
3 | C=CC(=O)N1C[C@H](c2ccc(Br)cc2)[C@H]1C(=O)Nc1cccc2cccnc12 [MY-3B, (2S,3S)-1-acryloyl-3-(4-bromophenyl)-N-(quinolin-8-yl)azetidine-2-carboxamide] | 21%
4 | C=CC(=O)N1C[C@@H](c2ccc(Br)cc2)[C@H]1C(=O)Nc1cccc2cccnc12 [MY-1A, (2S,3R)-1-acryloyl-3-(4-bromophenyl)-N-(quinolin-8-yl)azetidine-2-carboxamide] | −22%

From patent US20250034216A1, “STEREOSELECTIVE COVALENT LIGANDS FOR ONCOGENIC AND IMMUNOLOGICAL PROTEINS” (The Scripps Research Institute, priority 2021, published 2025)
